{
  "source": "patent US7396534B2",
  "about": "“Cosmetic compositions containing Nigrospora sphaerica extracts” (Unilever Home & Personal Care USA, division of Conopco, Inc., priority 2004, dated 2008)",
  "key": {"[1]": {"system": "skin from 8-month old pigmented pigs", "test": "Pig skin organ culture, 14C-thiouracil incorporation (new melanin synthesis)", "type": "cell-based", "conditions": "1.4 mg/ml (10 mM), pig skin biopsies, three day incubation", "protocol": "Organ Culture Method Waste skin from 8-month old pigmented pigs was shaved to remove hairs and washed thoroughly to remove debris and reduce microbial content. The cleaned skin was then dermatomed to approximately 1-mm thickness×75-cm^2 and placed in tissue culture flasks containing Dulbecco's Modified Eagle's Medium (DMEM Cat#1188507) containing penicillin (100-units/ml), streptomycin (100-ug/ml), kanamycin (200-ug/ml), […]-mM), and fungizone (0.5-ug/ml). All flasks were incubated overnight at 37° C. in the presence of 5% carbon dioxide. This allowed the skin to equilibrate for 18 hours prior to the addition of melanin inhibitors. Areas of the skin that had scratches, erythema, or uneven pigmentation were discarded. The following morning, the skin was punched into 4-mm diameter biopsies and transferred to a 96-well tissue culture plate. To each well containing a biopsy, 180-microliters of fresh DMEM containing penicillin (100-units/ml), streptomycin (100-ug/ml), […]-mM), hydrocortisone (100-μg/ml) and 0.4-μCi/ml ^14C-thiouracil (Moravek Biochemicals) was added along with 20-microliters of natural extract. […] Samples were mixed several times to ensure even dispersion, sealed, and assessed for radiolabel incorporation using a Packard TopCount scintillation counter. […]"}, "[2]": {"system": "MelanoDerm tissue equivalent model (MEL-300) containing melanocytes obtained from dark skin individuals", "test": "MelanoDerm tissue equivalent model, melanin content", "type": "cell-based, human", "conditions": "14 micro-g/ml (100 uM); 14-day period, relative to untreated or vehicle control", "protocol": "MelanoDerm Tissue Model Method\nA MelanoDerm tissue equivalent model (MEL-300 from Mat Tek, Ashland, Mass.) containing melanocytes obtained from dark skin individuals was utilized to confirm the results obtained in the pig organ culture. MelanoDerms were cultured as per the supplier instructions.\n[…] Positive control was included, i.e., kojic acid, which is a known skin lightening agent. During each medium change, a portion of the waste was analyzed for levels of lactate dehydrogenase as an indicator of cellular toxicity and stress. At no time was the level of lactate dehydrogenase above the vehicle control solvents (water or ethanol).\nDetermination of melanin content within each MelanoDerm was performed using the assay provided by the manufacturer. Each MelanoDerm was homogenized in 450-microliters of buffer (1% SDS, 0.05-mM EDTA, 10-mM Tris-HCl, pH 6.8) containing 20-microliters of Proteinase K (5 mg/ml) and incubated overnight at 45° C. […] The optical density of the top phase was determined (405-nm) following extraction of the sample with 100-microliters of chloroform:methanol (2:1) and centrifugation (10,000 g) for ten minutes. Optical density readings relative to the untreated or vehicle control (water or ethanol) were then calculated."}},
  "data": [
    {"smiles": "O=c1cc(CO)occ1O", "note": "[Kojic Acid]", "values": [
      {"measurement": "% Radiolabel Reduction", "setting": "[1]", "value": 56, "unit": "%"},
      {"measurement": "% Melanin Reduction", "setting": "[2]", "value": 9.5, "unit": "%"}
    ]}
  ]
}
